The experiment concerns BT474, H460, HCT116, HUVEC, LNCAP, MCF7, and PC3 cells. The experiment in a line: free test compound cell-based assay, 7 tumor cell panel (CellTiter-Glo). The note with it: NSA = no significant activity; for pIC50 / IC50: Homo sapiens; for pIC50 / Avg. (nM): average linear IC50 across the 7 tumor cell panel; for pIC50: read-out: Avg.; for IC50 / Avg. (log IC50): average log IC50 across the 7 tumor cell panel; for IC50: read-out: Avg. (log IC50) (converted). On the set-up: species or system Human. The protocol: Heterocyclic-substituted bis-1,8-naphthalimide compounds of Formula XV in Table 2 were prepared and tested for in vitro activity against a panel of tumor cells (Example 110).
Alternatively, the efficacy of compounds of the invention can be assayed by the following free test compound cell-based assay protocol
• 1. Prepare each cell line (BT474, H460, HCT116, HUVEC, LNCaP, MCF7, and PC3) at 1 k cells/well in separate plates with Complete Media (CM): RPM1 […]+10% FBS (Fetal Bovine Serum)+1% of 200 mM L-Glutamine. Plate number depends on test compounds provided by submitter. • 2. Detach prospective cell lines by first removing the media. When the flask is empty of media, begin rinsing out individual flasks with 5 mL sterile PBS. Move the PBS around within the flask to rinse well. Decant the PBS and add aseptically 5 mL of Accutase/flask. Make sure the Accutase covers the entire flask. • 3. Immediately place the flask(s) into a 37° C. incubator to allow cells to detach for 5-7 minutes. • 4. Post 5-7 minutes, remove flask(s) from the incubator and begin harvesting the detached cells using a serological pipette. Pipette up and down along the back of the flask to facilitate cell detachment. Pipette the Accutase containing cells into a sterile 50 mL conical tube/cell line. Pipette 10 mL of sterile PBS and re-rinse the flask to obtain remaining cells and dispense it into the same 50 mL conical tube/cell line for a total volume of 15 mL/tube/cell line. • 5. After each cell line has been allocated to a designated tube, take out 100 μL/tube/cell line for the cell counts. While the cell counts are being calculated, centrifuge the 50 mL tubes at 1000 rpm at 4° C. with a high brake. • 6. When centrifugation and cell calculations are completed, decant excess liquid and resuspend the cell pellet(s) using 5 mL CM, depending on calculations. • 7. Using a 5 mL syringe and an 18 G ½ needle, strain the cells to help prevent aggregation. Further strain by using a […] cell filter to block out any huge aggregates not broken down by the needle. • 8. After cell straining and filtering, take out calculated amount for a 1 k cells/well into fresh media. Take the media containing cells and load 100 μL/well into a bottom tissue culture treated flat 96 well plate. • 9. Immediately place in a 37° C. incubator overnight to allow the cells to adhere to the tissue culture treated 96 well plates. Day 2: • 1. Test compounds are submitted at 10 mM in sterile DMSO. • 2. DMSO as negative control and a positive standard are used in every assay! • 3. Prepare a 1:1000 fold dilution for each test compound, control, and standard for a 10e-5 M starting point. Do a 1:100 first, then a 1:10. • 4. Prior to diluting samples, vortex the samples and the controls for a homogeneous mixture. Note any sample that will not solubilize and/or stay in suspension. • 5. When the samples are at 10e-5 M, vortex each tube well and spin down fluid to ensure sample remains in tacked. Manual Dilution Protocol: • 1. After the tubes are at a final 1:1000 (10e-5 M) dilution, load the first column of the microtube box with the prospective sample. Load DMSO and positive control in singlets. The test compounds are loaded in duplicates. Load the remaining empty microtube racks with 540 μL of media to prepare for a serial dilution of 1:10. • 2. Agitate and transfer 60 μL from column 1 into successive wells containing 540 μL of media (1:10). Therefore, transfer 60 μL of column 1 into 540 μL of column 2. Resuspend column 2 about 10-15×'s then transfer 60 μL from column 2 to column 3 etc. Automated Dilution Protocol: • 1. Once the tubes are at a final 1:1000 (10e-5 M), load the first column of the microtube box with the prospective sample. Load DMSO and positive control in singlets. The compounds are loaded in duplicates. Load the remaining empty microtube racks manually with 540 μL of media to prepare for the automated serial dilution of 1:10 (see above diagram). • 2. […]
On the technique in general: Cellular ATP, detected with luciferase, serves as a proxy for viable cell number.

Molecules are shown by their SMILES. pIC50: −log10 of the molar value. Read-outs that look alike come from different tables or passages of the source.

With `CC(=O)N(CCCNCCN1C(=O)c2cccc3c(N4CCOCC4)ccc(c23)C1=O)CCN1C(=O)c2cccc3c(N4CCOCC4)ccc(c23)C1=O` [Compound 54c, N, N′-(N-acetyl, bis-aminoethyl-1,3-propanediamine)-bis-4-morpholino-1,8 naphthalimide], the pIC50 is 6.72 and the 50% inhibitory concentration (IC50) was 191 nM.

Turning to `CC(=O)N1CCN(c2ccc3c4c(cccc24)C(=O)N(CCN2C=[N+](CCN4C(=O)c5cccc6c(N7CCN(C(C)=O)CC7)ccc(c56)C4=O)CC2)C3=O)CC1` [Compound 63b, N, N′-(bis-aminoethy-4,5-dihydro-imidazolium)-bis 4-(4-acetylpiperazino)-1,8 naphthaliinide], the pIC50 is 6.60 and the IC50 was 251 nM.

`O=C1c2cccc3c(N4CCOCC4)ccc(c23)C(=O)N1CCNCCCNCCN1C(=O)c2cccc3c(N4CCOCC4)ccc(c23)C1=O` [Compound 20, N, N′-(bis-aminoethyl-1,3-propanediamine)-bis-4-morpholino-1,8 naphthalimide]: the pIC50 is 8.59 and the IC50 is 2.57 nM.

As to `O=C1c2cccc3c(N4CCOCC4)ccc(c23)C(=O)N1CCNCCCN(CCN1C(=O)c2cccc3c(N4CCOCC4)ccc(c23)C1=O)C(=O)C(F)(F)F` [Compound 54h, N, N′-(N-trifluoromethylacetyl, bis-aminoethyl-1,3-propanediamine)-bis-4-morpholino-1,8 naphthalimide], the pIC50 is 6.51 and the IC50 was 309 nM.

Take `O=C1c2cccc3c(N4CCNCC4)ccc(c23)C(=O)N1CCNCCCNCCN1C(=O)c2cccc3c(N4CCNCC4)ccc(c23)C1=O` [Compound 58a, N, N′-(bis-aminoethyl-1,3-propanediamine)-bis-4-piperazino-1,8 naphthalimide]: the pIC50 was 8.77 and the IC50 was 1.7 nM.

Take `CN1CCN(c2ccc3c4c(cccc24)C(=O)N(CCNCCNCCN2C(=O)c4cccc5c(Br)ccc(c45)C2=O)C3=O)CC1` [Compound 61, N, N′-(bis-aminoethyl-1,2-ethanediamine)-4-piperazino,4-bromo-1,8 naphthalimide]: the pIC50 was 7.39 and the IC50 is 40.7 nM.

For `CC(=O)N1CCN(c2ccc3c4c(cccc24)C(=O)N(CCNCCCNCCN2C(=O)c4cccc5c(N6CCN(C(C)=O)CC6)ccc(c45)C2=O)C3=O)CC1` [Compound 63c, N, N′-(bis-aminoethyl-1,3-propanediamine)-bis-4-(4-acetylpiperazino)-1,8 naphthalimide], the pIC50 is 8.96 and the IC50 is 1.1 nM.

Turning to `CC(=O)N1CCN(c2ccc3c4c(cccc24)C(=O)N(CCNCCCNCCN2C(=O)c4cccc5c(N(C)C)ccc(c45)C2=O)C3=O)CC1` [Compound 64, N, N′-(bis-aminoethyl-1,3-propanediamine)-4-(4-acetylpiperazino)-4-dimethylamino-1,8 naphthalimide], the pIC50 is 8.74 and the IC50 was 1.82 nM.

Regarding `C[C@H](N)C(=O)N(CCCNCCN1C(=O)c2cccc3c(N4CCOCC4)ccc(c23)C1=O)CCN1C(=O)c2cccc3c(N4CCOCC4)ccc(c23)C1=O` [Compound 54e, N, N′-(N-alanyl, bis-aminoethyl-1,3-propanediamine)-bis-4-morpholino-1,8 naphthalimide], the pIC50 is 6.90 and the IC50 was 126 nM.

Consider `O=C(CC(=O)NCCN1C(=O)c2cccc3c(N4CCOCC4)ccc(c23)C1=O)NCCN1C(=O)c2cccc3c(N4CCOCC4)ccc(c23)C1=O` [Compound 35, N, N′-(bis-ethyl, malondiamide)-bis-4-morpholino-1,8 naphthalimide], for which the “Avg. (nM)” value is “NSA” and the “Avg. (log IC50)” value is recorded as “NSA”.

Turning to `CC(=O)N1CCN(c2ccc3c4c(cccc24)C(=O)N(CCNCCNCCN2C(=O)c4cccc5c(N6CCN(C(C)=O)CC6)ccc(c45)C2=O)C3=O)CC1` [Compound 63a, N, N′-(bis-aminoethyl-1,2-ethanediamine)-bis 4-(4-acetylpiperazino)-1,8 naphthalimide], the pIC50 is 8.35 and the IC50 was 4.47 nM.

Consider `O=C1c2cccc3c(N4CCOCC4)ccc(c23)C(=O)N1CCN1C=[N+](CCN2C(=O)c3cccc4c(N5CCOCC5)ccc(c34)C2=O)CCC1` [Compound 57, N, N′-(bis-aminoethyl-1,4,5,6-tetrahydropyrimidinium)-bis-4-morpholino-1,8 naphthalimide], for which the pIC50 was 6.33 and the IC50 is 468 nM.

For `O=C1c2cccc3c(N4CCOCC4)ccc(c23)C(=O)N1CCOCCOCCN1C(=O)c2cccc3c(N4CCOCC4)ccc(c23)C1=O` [Compound 54b, N, N′-(3,6-dioxaoctanylene)-bis-4-morpholino-1,8 naphthalimide], the “Avg. (nM)” value is recorded as “NSA” and the “Avg. (log IC50)” value is reported as “NSA”.

For `O=C1c2cccc3cc([N+](=O)[O-])cc(c23)C(=O)N1CCNCCCNCCN1C(=O)c2cccc3c(N4CCOCC4)ccc(c23)C1=O` [Compound 56a, N, N′-(bis-aminoethyl-1,3-propanediamine)-3-nitro, 4-morpholino-1,8 naphthalimide], the pIC50 is 8.79 and the IC50 is 1.62 nM.

Consider `CC(=O)c1ccc2c3c(cccc13)C(=O)N(CCNCCCNCCN1C(=O)c3cccc4c(N5CCOCC5)ccc(c34)C1=O)C2=O` [Compound 62, N, N′-(bis-aminoethyl-1,3-propanediamine)-4-acetyl,4-morpholino-1,8 naphthalimide], for which the pIC50 is 8.34 and the IC50 was 4.57 nM.

For the compound `O=C1c2cccc3c(-n4ccnc4)ccc(c23)C(=O)N1CCNCCCNCCN1C(=O)c2cccc3c(-n4ccnc4)ccc(c23)C1=O` [Compound 24b, N, N′-(bis-aminoethyl-1,3-propanediamine)-bis-(4-N-imidazolyl)-1,8 naphthalimide], the pIC50 was 9.39 and the IC50 is 0.407 nM.

Turning to `COCCOCCOCC(=O)N(CCCNCCN1C(=O)c2cccc3c(N4CCOCC4)ccc(c23)C1=O)CCN1C(=O)c2cccc3c(N4CCOCC4)ccc(c23)C1=O` [Compound 54g, N, N′-(N-methylethoxyethoxyacetyloxy, bis-aminoethyl-1,3-propanediamine)-bis-4-morpholino-1,8 naphthalimide], the pIC50 is 6.16 and the IC50 was 692 nM.

For `O=C1c2cccc3c(N4CCOCC4)ccc(c23)C(=O)N1CCNCCCN(CCCS)CCN1C(=O)c2cccc3c(N4CCOCC4)ccc(c23)C1=O` [Compound 55a, N, N′-(N-3-mercaptopropyl, bis-aminoethyl-1,3-propanediamine)-bis-4-morpholino-1,8 naphthalimide], the pIC50 is 7.24 and the IC50 was 57.5 nM.

With `O=C1c2cccc3c(N4CCOCC4)ccc(c23)C(=O)N1CCCCNCCCN1C(=O)c2cccc3c(N4CCOCC4)ccc(c23)C1=O` [Compound 45, N, N′-(4-aza-octanyl)-bis-4-morpholino-1,8 naphthalimide], the pIC50 is 5.82 and the IC50 is 1510 nM.

Consider `O=C(CN1C(=O)c2cccc3c(N4CCOCC4)ccc(c23)C1=O)NCCNCCCN1C(=O)c2cccc3c(N4CCOCC4)ccc(c23)C1=O` [Compound 38], for which the pIC50 is 5.74 and the IC50 is 1820 nM.

For the compound `CN1CCN(c2ccc3c4c(cccc24)C(=O)N(CCNCCNCCN2C(=O)c4cccc5c(N6CCN(C)CC6)ccc(c45)C2=O)C3=O)CC1` [Compound 60, N, N′-(bis-aminoethyl-1,2-ethanediamrne)-bis-4-(4-methylpiperazino)-1,8 naphthalimide], the pIC50 is 8.98 and the IC50 is 1.05 nM.

Broadly, the IC50 is the point on the concentration scale where inhibition reaches its midpoint.
